This is an account of results in patent publication US20190315775A1, “MODIFIED […] AND PHARMACEUTICAL COMPOSITION HAVING SAME AS ACTIVE INGREDIENT” (KEIO UNIVERSITY, priority 2016, published 2019).

Series [1] concerns the target T1, cereblon (CRBN) (Homo sapiens, UniProt Q96SW2).
T1 construct: recombinant full-length CRBN prepared by the above method was reacted with the beads; T7 tag (N); FLAG tag (C); made in house; host or cells: 293T cells (pcDNA3.3 vector), RIPA extract purified on Ni Sepharose excel
As to the kind of experiment: Pull-down assay of cereblon with biotinylated drug on streptavidin beads. Conditions: 30° C., 30 minutes, FIG. 9A. The format is binding. As for the experimental part:
CRBN was prepared as follows. A T7 tag was added 5′-upstream of, and a FLAG tag and a histidine tag were added 3′-downstream of a full-length CRBN gene. The gene was introduced into a pcDNA3.3 expression vector (Invitrogen), thereby constructing a plasmid DNA. Next, a Kozak sequence was added 5′-upstream of the T7 tag using a KOD-Plus-Mutagenesis Kit (TOYOBO). The plasmid DNA was transfected into 293T cells. After 4 days of culture at 37° C. with 5% CO2, cells were extracted with a RIPA buffer (Thermo), and then the extracted fraction was purified using Ni Sepharose excel (GE Healthcare). Since the purified fraction contained imidazole, TBS (Nacalai Tesque) was subjected to buffer exchange. […] Centrifugation was performed to separate the resultants into a flow-through (F) fraction and a bead (B) fraction. Protein bands corresponding to CRBN were separated by SDS-PAGE, and then detected by Western blot. […] Note that “I” indicates “Input fraction”.

Series [2] in a line: Water solubility of drugs (saturation concentration by HPLC). The format is physicochemical. The settings on record: 100 mM Tris-HCl (pH 7.5); for Water solubility: 25° C., saturation concentration; for Water solubility, relative ratio (numerals in parentheses): relative to TC11.
The subject of series [3] is KMM1 high-risk MM cell line. Briefly: MTT cell proliferation inhibition, KMM1. In kind it is cell-based. The settings on record: Homo sapiens, KMM-1, KMM1, t(6;14), t(8;14), del17, 48 hours, read-out: IC50, cell proliferation inhibitory activity, KMM1. As for the experimental part:
(§1) For examination of cell proliferation inhibitory activity, high-risk MM cell lines (KMM1, KMS11, KMS21, KMS26, KMS28, KMS34) established by Takemi Otsuki et al., of Kawasaki Medical School were used (Otsuki, T. et al., Int. J. Oncol., 15: 1205-1212, 1999). […] The genetic abnormality of these cell types, and in particular deletion of p53 gene were examined by FISH method (Chang, H. Blood, 105: 358-360, 2005) (WO2010/061862A1). […] These high-risk MM cell lines were treated with drugs such as TC11, HOEtO-TC11, PEG11(E)-TC11, and PEG11(O)-TC11 at arbitrary concentrations. […] Specifically, each high-risk MM cell line was prepared at a concentration of 2×10^5 cells/ml, and then seeded in an amount of 50 μl (1×10^4 cells) per well. After 24 hours, drugs such as TC11, HOEtO-TC11, PEG11(E)-TC11, and PEG11(O)-TC11 having arbitrary concentrations were added. At 48 hours after addition of each drug, 10 μL each of an MTT labeling reagent in Cell Proliferation Kit I [MTT] (Roche Diagnostics, Basel, Switzerland) was added. After 4 hours of treatment at 37° C., 100 μL each of solution buffer was added and then left to stand overnight at 37° C. Absorbance was measured using a microplate reader Infinit™ M1000 (Tecan, Maennedorf, Switzerland) at a wavelength of 570 nm. Cell viability was found from an absorbance ratio using absorbance at 0 μM designated as 100%. IC50 was calculated from a semi-logarithmic chart using Microsoft (registered trademark) Excel.

Series [4] relates to KMS11 high-risk MM cell line. Briefly: MTT cell proliferation inhibition, KMS11. In kind it is cell-based. The settings on record: Homo sapiens, KMS-11, KMS11, t(4;14), del17, 48 hours, read-out: IC50, cell proliferation inhibitory activity, KMS11. As for the experimental part:
as §1

For series [5], the system named is KMS21 high-risk MM cell line. Briefly: MTT cell proliferation inhibition, KMS21. The format is cell-based. The settings on record: Homo sapiens, KMS21, t(11;14), 48 hours, read-out: IC50, cell proliferation inhibitory activity, KMS21. As to the method:
as §1
Moreover, the concentration dependency of the in vitro cell proliferation inhibitory activity of TC11, and its derivatives, PEG11(E)-TC11 and HOEtO-TC11 against high-risk MM cell line (KMS21) was examined in detail (FIG. 4). […] Such a phenomenon was similarly observed for other high-risk MM cell lines, KMS11, KMS34, and MUM24.

Series [6] relates to KMS26 high-risk MM cell line. Briefly: MTT cell proliferation inhibition, KMS26. In kind it is cell-based. The settings on record: Homo sapiens, KMS-26, KMS26, t(4;14), t(4;16), del17, 48 hours, read-out: IC50, cell proliferation inhibitory activity, KMS26. As for the experimental part: as §1
Series [7] has as its system KMS34 high-risk MM cell line. Briefly: MTT cell proliferation inhibition, KMS34. The format is cell-based. Conditions: Homo sapiens, KMS-34, KMS34, t(4;14), del17, 48 hours, read-out: IC50, cell proliferation inhibitory activity, KMS34. As to the method: as §1
Series [8] concerns MUM24 MM cell line. Briefly: MTT cell proliferation inhibition, MUM24. In kind it is cell-based. Conditions: Homo sapiens, MUM24, t(4;14), del13, del17, 48 hours, read-out: IC50, cell proliferation inhibitory activity, MUM24.
Series [9] deals with high-risk MM cell lines. Briefly: MTT cell proliferation inhibition, panel of high-risk MM cell lines. The format is cell-based. The settings on record: Homo sapiens, range over the cell lines of Table 2, 48 hours. As for the experimental part:
as §1

Series [10] concerns the target T1, cereblon (CRBN). As to the kind of experiment: Surface plasmon resonance biosensor (BIACORE 3000) interaction with cereblon. In kind it is binding. The settings on record: measured at 1 μM, 2 μM and 10 μM, FIG. 9C. (In general: Surface plasmon resonance follows binding to a sensor surface in real time, without labels.)
Series [11] has as its system KMS11 xenograft. Briefly: Antitumor effect on KMS11 cancer-bearing mice (Example 17). In kind it is in vivo, ICR/SCID mice. As for the experimental part: KMS11 was administered to 5-week-old ICR/SCID mice at 2×10^7 cells/mouse via hypodermic injection. Tumor volumes were measured over time, and the day on which the tumor volume exceeded 50 mm^3 was designated as Day 1 and observation was performed for 9 days. […] On the day of administration, these solutions were diluted 10-fold with physiological saline while stirring with Vortex, and then intraperitoneally administered. Tumor volume was calculated by the following formula.
Tumor volume (mm^3)=major axis×minor axis×minor axis×π/6=major axis×minor axis×minor axis×0.5236

Series [12] has as its system KMM1 high-risk MM cell line. Briefly: WST-1 cell proliferation inhibition (Example 8), KMM1. The settings on record: Homo sapiens, KMM-1, WST-1, 48 hours, read-out: IC50, cell proliferation inhibitory activity, KMM1. In kind it is cell-based. As to the method:
(§2) Similar to Example 7, high-risk MM cell lines were treated with drugs, TC11 and PEG5(E)-TC11 at arbitrary concentrations. […] Specifically, each high-risk MM cell line was prepared at 5×10^5 cells/ml, and then seeded at 50 μl per well (2.5×10^4 cells). Drugs such as TC11, and PEG5(E)-TC11 were added to wells at arbitrary concentrations. WST-1 reagent was added at 48 hours after addition of drugs. After 1 hour of reaction at 37° C. in a CO2 incubator, absorbance was measured at a wavelength of 450 nm using a microplate reader. Cell viability was found from an absorbance ratio using absorbance at 0 μM designated as 100%. IC50 was calculated from a semi-logarithmic chart using Microsoft (registered trademark) Excel.

For series [13], the system named is KMS11 high-risk MM cell line. As to the kind of experiment: WST-1 cell proliferation inhibition (Example 8), KMS11. The settings on record: Homo sapiens, KMS-11, WST-1, 48 hours, read-out: IC50, cell proliferation inhibitory activity, KMS11. The format is cell-based. As for the experimental part:
as §2
Background: Formazan colour is commonly taken as a measure of viable cells.

The test system of series [14] is KMS21 high-risk MM cell line. Briefly: WST-1 cell proliferation inhibition (Example 8), KMS21. Conditions: Homo sapiens, WST-1, 48 hours, read-out: IC50, cell proliferation inhibitory activity, KMS21. In kind it is cell-based. As to the method: as §2
The test system of series [15] is KMS34 high-risk MM cell line. As to the kind of experiment: WST-1 cell proliferation inhibition (Example 8), KMS34. In kind it is cell-based. Conditions: Homo sapiens, KMS-34, WST-1, 48 hours, read-out: IC50, cell proliferation inhibitory activity, KMS34. As to the method: as §2
Series [16] relates to high-risk MM cell lines. Briefly: WST-1 cell proliferation inhibition (Example 8), panel of high-risk MM cell lines. The format is cell-based. Conditions: Homo sapiens; range over the cell lines of Table 3; WST-1, 48 hours. As to the method:
as §2

T1 sequence (Q96SW2 whole entry): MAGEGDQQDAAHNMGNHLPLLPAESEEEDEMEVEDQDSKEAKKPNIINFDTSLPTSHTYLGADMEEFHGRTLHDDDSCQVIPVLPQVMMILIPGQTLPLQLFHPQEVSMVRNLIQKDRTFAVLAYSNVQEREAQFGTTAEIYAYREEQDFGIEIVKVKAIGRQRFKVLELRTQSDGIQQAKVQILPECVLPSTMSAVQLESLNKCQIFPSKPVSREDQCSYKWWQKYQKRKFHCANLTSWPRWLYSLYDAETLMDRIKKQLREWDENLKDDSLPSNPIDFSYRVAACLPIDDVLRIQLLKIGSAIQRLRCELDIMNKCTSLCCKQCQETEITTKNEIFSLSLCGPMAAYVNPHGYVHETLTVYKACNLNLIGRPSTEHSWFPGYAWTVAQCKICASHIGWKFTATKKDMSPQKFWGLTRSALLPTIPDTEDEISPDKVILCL

Turning to `O=C1CCC(N2C(=O)c3ccccc3C2=O)C(=O)N1` (stereo not drawn) [thalidomide], in series [1], the “Binding of CRBN to drug immobilized on beads (pull-down, Western blot)” value is reported as “bound”.

`CC(C)c1cccc(C(C)C)c1N1C(=O)c2cc(N)c(OCCO)cc2C1=O` [HOEtO-TC11, hydroxyethoxy-TC11] came in with a Water solubility in series [2] of 0.027 g/100 ml. Besides, the “Water solubility, relative ratio (numerals in parentheses)” value (“Water solubility, relative ratio” for short) in series [2] is given as 13.5 ×. The IC50 came out at 7.7 µM in [3]; 3.9 µM in series [4]; 2.4 µM in [5]; 1.9 µM in series [6]; 4.1 µM in series [7]; 4 µM in series [8]. Further, in [9], the IC50 was 1 to 8 µM. Further, in [10], the “Binding to CRBN (SPR sensorgram)” value is reported as “never bind to CRBN”. Further, the “KMS-11 tumor growth, level relative to the control” value in [11] (Day 9, HOEtO-TC11 71.1 mg/kg BW i.p.) is “about ⅓”. Moreover, in series [11] (Day 9, HOEtO-TC11 71.1 mg/kg BW i.p. vs TC11 60 mg/kgBW), the “KMS-11 tumor growth, level relative to TC11” value is recorded as “about a half”. The “KMS-11 tumor growth compared to control mice” value in [11] (Day 9, i.p., equimolar to TC11 60 mg/kgBW) is reported as “tumor growth was suppressed”.

In the case of `COCCOCCOCCOCCOCCC(=O)OCCOc1cc2c(cc1N)C(=O)N(c1c(C(C)C)cccc1C(C)C)C2=O` [PEG5(E)-TC11], in series [2], the Water solubility came out at 0.002 g/100 ml. In addition, in series [2], the “Water solubility, relative ratio” value stood at 1 ×. Also, the IC50 in [12] is 3.6 µM; in series [13], 1.4 µM; in series [14], 1.2 µM; in series [15], 6.5 µM; in series [16], 1.3 to 4.6 µM.

For the molecule `Nc1cccc2c1CN(C1CCC(=O)NC1=O)C2=O` (stereo not drawn) [lenalidomide, reference compound], the “In vivo anti-tumor effect compared to HOEtO-TC11” value in series [11] (lenalidomide 49.9 mg/kgBW i.p., KMS11 xenograft) was “clearly weaker than that of HOEtO-TC11”.

With `CC(C)c1cccc(C(C)C)c1N1C(=O)c2cc(N)c(OCCO[C@@H]3OC(CO)[C@@H](O)[C@H](O)C3O)cc2C1=O` (stereo partly drawn) [Glu-TC11], in series [2], the Water solubility is 0.082 g/100 ml and the “Water solubility, relative ratio” value was determined as 41 ×.
